For data set [1] the following is noted: oral, rats and mice, 12 months; cited from earlier work.
Data set [2] is classed as in vivo. As to conditions: rats, 25 mg/kg topical, 24 h monitoring. How it is done: In vivo pharmacokinetic study of MTK-loaded nanocrystal preparation was carried out in the healthy rats, after approval from Institutional Animal Care and Use Committee (IACUC) of Dankook University (Cheonan, Korea) (DKU-19-032, 8th October 2019). Six-week-old male Sprague-Dawley rats (SD rats, 250 ± 20 g) obtained from Samtako (Kyungki-do, Korea) were acclimated for at least 3 days, with free access to tap water and standardized chow. The rats were then divided into two groups (n = 6 per each group) and the hair on the dorsal region was removed by hair clippers without damaging the skin, prior to topical application. […] To avoid the drying of the nanocrystal or conventional hydrogels, a thin film made from polyurethane and acrylamide (Tegaderm®, 10 × 12 cm) was attached onto the application site. At predetermined time intervals (0, 0.5, 1, 2, 3, 4, 5, 8, 12, and 24 h), the blood samples (about 0.2 mL) were withdrawn from the submandibular vein using 28 G heparinized syringe. At 6 h post-administration, rats were allowed to freely access to water and standardized chow. During the experimental period (24 h), individual rats were monitored for their changes in skin and fur, behavior pattern, morbidity, and mortality. […] The drug concentration in the plasma was determined by the high-performance liquid chromatography and tandem mass spectrometry (LC–MS/MS) method described below.

Data set [3] can be described thus: In vivo pharmacokinetics after topical application to dorsal skin. The following applies: male, Sprague-Dawley, rat, plasma, both hydrogel groups, rats, topical 25 mg/kg. How it is done:
In vivo pharmacokinetic study of MTK-loaded nanocrystal preparation was carried out in the healthy rats, after approval from Institutional Animal Care and Use Committee (IACUC) of Dankook University (Cheonan, Korea) (DKU-19-032, 8th October 2019). Six-week-old male Sprague-Dawley rats (SD rats, 250 ± 20 g) obtained from Samtako (Kyungki-do, Korea) were acclimated for at least 3 days, with free access to tap water and standardized chow. The rats were then divided into two groups (n = 6 per each group) and the hair on the dorsal region was removed by hair clippers without damaging the skin, prior to topical application. […] During the experimental period (24 h), individual rats were monitored for their changes in skin and fur, behavior pattern, morbidity, and mortality. […] The drug concentration in the plasma was determined by the high-performance liquid chromatography and tandem mass spectrometry (LC–MS/MS) method described below.
Briefly, 20 μL of thawed rat plasma was mixed with 500 μL of the extraction solution (25% (v/v) of dichloromethane and 75% (v/v) of ethyl acetate), including zafirlukast (the internal standard, IS, 60 ng/mL) and vortexed for 60 s. […] Then, the residue was reconstituted with 100 μL of methanol and the final solution was analyzed through the LC-MS/MS system, composed of Nexera X2 UHPLC and LCMS-8050 mass spectrometer (Shimadzu, Tokyo, Japan). […]

On the set-up of data set [4]: method as in ref 11 (Al Omari et al. 2007). The following applies: UV exposure for 15 min; ref 11 (Al Omari et al. 2007); cited from earlier work.
On the set-up of data set [5]: method as in ref 25 (Lai et al.). The following applies: photo-stability; ref 25 (Lai et al.); cited from earlier work.

Regarding `CC(C)(O)c1ccccc1CC[C@@H](SCC1(CC(=O)O)CC1)c1cccc(/C=C/c2ccc3ccc(Cl)cc3n2)c1` [MTK, Montelukast], in data set [1], the NOAEL (as a rule, the highest dose or exposure tested at which no adverse effect was seen) is reported as 50 mg/kg. Also, the “adverse effects following single topical administration” value in data set [2] is on record as “no marked adverse effects”. The compound further yielded a concentration at 5 h in data set [3] (5 h post-dosing) of 2 to 6 ng/mL. In addition, the concentration at 12 h in data set [3] (12 h post-dosing, read-out: drug concentration in the plasma) was < 1 ng/mL. In data set [4], the “drug content in the methanolic solution” value is recorded as 70%.
`CC1=C(/C=C/C(C)=C/C=C/C(C)=C/C(=O)O)C(C)(C)CCC1` [tretinoin]: in data set [5], the “half-life with nanosuspension as compared to drug methanolic solution” value was 7.5 fold.
